Reference: US20080167314A1, “Condensed Imidazole Compound And Use Thereof” (priority 2004, published 2008)

SMILES	melting point [°C]
Cc1cc(-c2nc3cccnn3c2-c2ccnc(NC(=O)c3cccc4ccccc34)c2)ccc1F [Example 42-20, N-{4-[2-(4-fluoro-3-methylphenyl)imidazo[1,2-b]pyridazin-3-yl]pyridin-2-yl}-1-naphthamide]	252 to 253
Cc1cc(-c2nc3cccnn3c2-c2ccnc(NC(=O)c3ccc(Cl)nc3)c2)ccc1F [Example 42-24, 6-chloro-N-{4-[2-(4-fluoro-3-methylphenyl)imidazo[1,2-b]pyridazin-3-yl]pyridin-2-yl}nicotinamide]	225 to 226
Cc1cc(-c2nc3cccnn3c2-c2ccnc(NC(=O)c3ccnc(Cl)c3)c2)ccc1F [Example 42-25, 2-chloro-N-{4-[2-(4-fluoro-3-methylphenyl)imidazo[1,2-b]pyridazin-3-yl]pyridin-2-yl}isonicotinamide]	224 to 225
Cc1cc(-c2nc3cccnn3c2-c2ccnc(NC(=O)c3ccc(C(F)(F)F)nc3)c2)ccc1F [Example 42-26, N-{4-[2-(4-fluoro-3-methylphenyl)imidazo[1,2-b]pyridazin-3-yl]pyridin-2-yl}-6-(trifluoromethyl)nicotinamide]	225 to 226
Cc1cc(-c2nc3cccnn3c2-c2ccnc(NC(=O)c3cncc(Cl)c3)c2)ccc1F [Example 42-28, 5-chloro-N-{4-[2-(4-fluoro-3-methylphenyl)imidazo[1,2-b]pyridazin-3-yl]pyridin-2-yl}nicotinamide]	252 to 254
Cc1cc(-c2nc3cccnn3c2-c2ccnc(NC(=O)c3cccnc3C)c2)ccc1F [Example 42-29, N-{4-[2-(4-fluoro-3-methylphenyl)imidazo[1,2-b]pyridazin-3-yl]pyridin-2-yl}-2-methylnicotinamide]	258 to 259
Cc1cncc(C(=O)Nc2cc(-c3c(-c4ccc(F)c(C)c4)nc4cccnn34)ccn2)c1 [Example 42-30, N-{4-[2-(4-fluoro-3-methylphenyl)imidazo[1,2-b]pyridazin-3-yl]pyridin-2-yl}-5-methylnicotinamide]	238 to 240
Cc1cc(-c2nc3cccnn3c2-c2ccnc(NC(=O)c3ccsc3)c2)ccc1F [Example 42-32, N-{4-[2-(4-fluoro-3-methylphenyl)imidazo[1,2-b]pyridazin-3-yl]pyridin-2-yl}thiophene-3-carboxamide]	217 to 218
Cc1cc(-c2nc3cccnn3c2-c2ccnc(NC(=O)c3ccoc3)c2)ccc1F [Example 42-33, N-{4-[2-(4-fluoro-3-methylphenyl)imidazo[1,2-b]pyridazin-3-yl]pyridin-2-yl}-3-furamide]	199 to 200
Cc1cc(-c2nc3cccnn3c2-c2ccnc(NC(=O)c3cnccn3)c2)ccc1F [Example 42-34, N-{4-[2-(4-fluoro-3-methylphenyl)imidazo[1,2-b]pyridazin-3-yl]pyridin-2-yl}pyrazine-2-carboxamide]	229 to 230
Cc1ccc(C(=O)Nc2nccc(-c3c(-c4cccc(C)c4)nc4cccnn34)n2)cc1 [Example 44-1, 4-methyl-N-{4-[2-(3-methylphenyl)imidazo[1,2-b]pyridazin-3-yl]pyrimidin-2-yl}benzamide]	211 to 212
COc1ccc(C(=O)Nc2nccc(-c3c(-c4cccc(C)c4)nc4cccnn34)n2)cc1 [Example 44-2, 4-methoxy-N-{4-[2-(3-methylphenyl)imidazo[1,2-b]pyridazin-3-yl]pyrimidin-2-yl}benzamide]	193 to 194
Cc1cccc(-c2nc3cccnn3c2-c2ccnc(NC(=O)c3ccncc3)n2)c1 [Example 44-3, N-{4-[2-(3-methylphenyl)imidazo[1,2-b]pyridazin-3-yl]pyrimidin-2-yl}isonicotinamide]	181 to 182
COc1ccc(C(=O)Nc2cc(-c3c(-c4cccc(C)c4)nc4ccc(N(C)C)nn34)ccn2)cc1 [Example 45-1, N-{4-[6-(dimethylamino)-2-(3-methylphenyl)imidazo[1,2-b]pyridazin-3-yl]pyridin-2-yl}-4-methoxybenzamide]	193 to 194
COc1ccc(C(=O)Nc2cc(-c3c(-c4ccc(F)c(C)c4)nc4ccc(N(C)C)nn34)ccn2)cc1 [Example 45-2, N-{4-[6-(dimethylamino)-2-(4-fluoro-3-methylphenyl)imidazo[1,2-b]pyridazin-3-yl]pyridin-2-yl}-4-methoxybenzamide]	224 to 225
CNc1ccc2nc(-c3ccc(F)c(C)c3)c(-c3ccnc(NC(=O)c4ccc(OC)cc4)c3)n2n1 [Example 46, N-{4-[2-(4-Fluoro-3-methylphenyl)-6-(methylamino)imidazo[1,2-b]pyridazin-3-yl]pyridin-2-yl}-4-methoxybenzamide]	178 to 180
CNC(=O)Nc1cc(-c2c(-c3ccc(F)c(C)c3)nc3cccnn23)ccn1 [Example 47-1, N-{4-[2-(4-fluoro-3-methylphenyl)imidazo[1,2-b]pyridazin-3-yl]pyridin-2-yl}-N′-methylurea]	225 to 227
Cc1cc(-c2nc3cccnn3c2-c2ccnc(NC(=O)NC(C)(C)C)c2)ccc1F [Example 47-2, N-(tert-butyl)-N′-{4-[2-(4-fluoro-3-methylphenyl)imidazo[1,2-b]pyridazin-3-yl]pyridin-2-yl}urea]	234 to 235

More lines, now with the values ahead:

melting point [°C]	SMILES
196 to 197	CCC(C)NC(=O)Nc1cc(-c2c(-c3ccc(F)c(C)c3)nc3cccnn23)ccn1 (centres unmarked) [Example 47-3, N-(sec-butyl)-N′-{4-[2-(4-fluoro-3-methylphenyl)imidazo[1,2-b]pyridazin-3-yl]pyridin-2-yl}urea]
170 to 171	Cc1cc(-c2nc3cccnn3c2-c2ccnc(NC(=O)NCCCCl)c2)ccc1F [Example 47-4, N-(3-chloropropyl)-N′-{4-[2-(4-fluoro-3-methylphenyl)imidazo[1,2-b]pyridazin-3-yl]pyridin-2-yl}urea]
204 to 206	Cc1cc(-c2nc3cccnn3c2-c2ccnc(NC(=O)Nc3ccc(C#N)cc3)c2)ccc1F [Example 47-5, N-(4-cyanophenyl)-N′-{4-[2-(4-fluoro-3-methylphenyl)imidazo[1,2-b]pyridazin-3-yl]pyridin-2-yl}urea]
234 to 235	Cc1cc(-c2nc3cccnn3c2-c2ccnc(NC(=O)Nc3ccsc3)c2)ccc1F [Example 47-6, N-{4-[2-(4-fluoro-3-methylphenyl)imidazo[1,2-b]pyridazin-3-yl]pyridin-2-yl}-N′-3-thienylurea]
229 to 230	CCNC(=O)Nc1cc(-c2c(-c3ccc(F)c(C)c3)nc3c(C)cc(Cl)nn23)ccn1 [Example 48-1, N-{4-[6-chloro-2-(4-fluoro-3-methylphenyl)-8-methylimidazo[1,2-b]pyridazin-3-yl]-2-pyridyl}-N′-ethylurea]
246 to 247	CCNC(=O)Nc1cc(-c2c(-c3ccc(F)c(C)c3)nc3cc(C(C)(C)C)c(Cl)nn23)ccn1 [Example 48-2, N-{4-[7-tert-butyl-6-chloro-2-(4-fluoro-3-methylphenyl)imidazo[1,2-b]pyridazin-3-yl]-2-pyridyl}-N′-ethylurea]
240 to 241	CCNC(=O)Nc1cc(-c2c(-c3ccc(F)c(C)c3)nc3c(C)ccnn23)ccn1 [Example 48-3, N-{4-[2-(4-fluoro-3-methylphenyl)-8-methylimidazo[1,2-b]pyridazin-3-yl]-2-pyridyl}-N′-ethylurea]
212 to 213	CCNC(=O)Nc1cc(-c2c(-c3ccc(F)c(C)c3)nc3cc(C(C)(C)C)cnn23)ccn1 [Example 48-4, N-{4-[7-tert-butyl-2-(4-fluoro-3-methylphenyl)imidazo[1,2-b]pyridazin-3-yl]-2-pyridyl}-N′-ethylurea]
263 to 264	CCNC(=O)Nc1cc(-c2c(-c3ccc(F)c(C)c3)nc3ccc(NC)nn23)ccn1 [Example 48-5, N-ethyl-N′-{4-[2-(4-fluoro-3-methylphenyl)-6-(methylamino)imidazo[1,2-b]pyridazin-3-yl]pyridin-2-yl}urea]
222 to 223	Cc1cc(-c2nc3cccnn3c2-c2ccnc(NC(=O)NC3CC3)c2)ccc1F [Example 51-1, N-cyclopropyl-N′-{4-[2-(4-fluoro-3-methylphenyl)imidazo[1,2-b]pyridazin-3-yl]pyridin-2-yl}urea]
229 to 230	Cc1cc(-c2nc3cccnn3c2-c2ccnc(NC(=O)NCC(F)(F)F)c2)ccc1F [Example 51-2, N-{4-[2-(4-fluoro-3-methylphenyl)imidazo[1,2-b]pyridazin-3-yl]pyridin-2-yl}-N′-(2,2,2-trifluoroethyl)urea]
213 to 214	Cc1cc(-c2nc3cccnn3c2-c2ccnc(NC(=O)NCC(C)C)c2)ccc1F [Example 51-3, N-{4-[2-(4-fluoro-3-methylphenyl)imidazo[1,2-b]pyridazin-3-yl]pyridin-2-yl}-N′-isobutylurea]
187 to 188	CCC(CC)NC(=O)Nc1cc(-c2c(-c3ccc(F)c(C)c3)nc3cccnn23)ccn1 [Example 51-4, N-(1-ethylpropyl)-N′-{4-[2-(4-fluoro-3-methylphenyl)imidazo[1,2-b]pyridazin-3-yl]pyridin-2-yl}urea]
204 to 205	Cc1cc(-c2nc3cccnn3c2-c2ccnc(NC(=O)NCCS(C)(=O)=O)c2)ccc1F [Example 51-5, N-{4-[2-(4-fluoro-3-methylphenyl)imidazo[1,2-b]pyridazin-3-yl]pyridin-2-yl}-N′-[2-(methylsulfonyl)ethyl]urea]
219 to 220	CSc1ccc(NC(=O)Nc2cc(-c3c(-c4ccc(F)c(C)c4)nc4cccnn34)ccn2)cc1 [Example 51-6, N-{4-[2-(4-fluoro-3-methylphenyl)imidazo[1,2-b]pyridazin-3-yl]pyridin-2-yl}-N′-[4-(methylthio)phenyl]urea]
233 to 234	Cc1cc(-c2nc3cccnn3c2-c2ccnc(NC(=O)Nc3cccnc3)c2)ccc1F [Example 51-7, N-{4-[2-(4-fluoro-3-methylphenyl)imidazo[1,2-b]pyridazin-3-yl]pyridin-2-yl}-N′-(pyridin-3-yl)urea]
239 to 240	Cc1cc(NC(=O)Nc2cc(-c3c(-c4ccc(F)c(C)c4)nc4cccnn34)ccn2)[nH]n1 [Example 51-8, N-{4-[2-(4-fluoro-3-methylphenyl)imidazo[1,2-b]pyridazin-3-yl]pyridin-2-yl}-N′-(3-methyl-1H-pyrazol-5-yl)urea]
